This is an account of results in ChEMBL document CHEMBL1129655, “A comparative molecular field analysis study of N-benzylpiperidines as acetylcholinesterase inhibitors” (J Med Chem, 1996).

The term IC50 denotes the concentration at which inhibition is half-maximal. Read a high IC50 as lower potency.

The structures appear in SMILES notation.

This assay has as its target T1, Acetylcholinesterase (Mus musculus, UniProt P21836).
T1 sequence (P21836 whole entry): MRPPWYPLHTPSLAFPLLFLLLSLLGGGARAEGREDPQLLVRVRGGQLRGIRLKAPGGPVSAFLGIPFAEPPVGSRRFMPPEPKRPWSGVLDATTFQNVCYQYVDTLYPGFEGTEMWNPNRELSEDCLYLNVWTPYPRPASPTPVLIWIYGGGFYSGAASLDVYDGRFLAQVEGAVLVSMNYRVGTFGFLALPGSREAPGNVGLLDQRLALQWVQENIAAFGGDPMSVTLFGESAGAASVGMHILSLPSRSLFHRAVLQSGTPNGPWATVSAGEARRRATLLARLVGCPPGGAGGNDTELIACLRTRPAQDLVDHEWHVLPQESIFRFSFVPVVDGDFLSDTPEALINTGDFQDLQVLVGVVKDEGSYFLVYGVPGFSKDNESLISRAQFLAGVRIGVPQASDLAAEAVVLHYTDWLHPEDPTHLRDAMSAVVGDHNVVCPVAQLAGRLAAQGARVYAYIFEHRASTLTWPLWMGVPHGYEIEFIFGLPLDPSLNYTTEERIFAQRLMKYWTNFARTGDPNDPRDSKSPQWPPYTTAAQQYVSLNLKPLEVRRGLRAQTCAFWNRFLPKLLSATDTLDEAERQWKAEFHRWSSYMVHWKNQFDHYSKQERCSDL
Description: Inhibition against Acetylcholinesterase (AChE)

In turn, `O=C(NCCC1CCN(CCc2ccccc2)CC1)c1ccccc1` showed an IC50 of 13 µM.
